Laboratory results from BindingDB's records for doi:10.1021/jm00147a030 (1985).

Biological target: Angiotensin-converting enzyme (Cavia porcellus)
Experiment: In vitro inhibitory activity against Angiotensin I converting enzyme from unpurified guinea pig serum

| SMILES | IC50 |
| --- | --- |
| CCOC(=O)C(CCc1ccccc1)OC(C)C(=O)N1CCCC1C(=O)O (stereo not given) | 220 nM |
| CCOC(=O)C(CCc1ccccc1)[S+]([O-])C(C)C(=O)N1C2CCCCC2C[C@H]1C(=O)O (stereo not given in full) | 220 nM |
| CCOC(=O)C(CCc1ccccc1)SC(C)C(=O)N1CCCC1C(=O)O (stereo not given) | 2900 nM |
| CC(OC(CCc1ccccc1)C(=O)O)C(=O)N1Cc2ccccc2CC1C(=O)O (stereo not given) | 86 nM |
| CCOC(=O)C(CCc1ccccc1)OC(C)C(=O)N1Cc2ccccc2CC1C(=O)O (stereo not given) | 14 nM |
| CC(SC(CCc1ccccc1)C(=O)O)C(=O)N1CCC[C@H]1C(=O)O (stereo not given in full) | 580 nM |
| CCOC(=O)C(CCc1ccccc1)SC(C)C(=O)N1Cc2ccccc2C[C@H]1C(=O)O (stereo not given in full) | 460 nM |
| CC(SC(CCc1ccccc1)C(=O)O)C(=O)N1C2CCCCC2C[C@H]1C(=O)O (stereo not given in full) | 140 nM |
| CCOC(=O)C(CCc1ccccc1)OC(C)C(=O)N1C(C(=O)O)CC2CCCCC21 (stereo not given) | 24 nM |
| CCOC(=O)C(CCc1ccccc1)SC(C)C(=O)N1CSC[C@@H]1C(=O)O (stereo not given in full) | 4800 nM |
